# Assays:
# Plasmodium falciparum [1] = assay: Antimalarial activity against Plasmodium falciparum NF54 assessed as inhibition of cell growth incubated for 72 hrs by SYBR Green I staining based fluorescence analysis; format: functional, organism-based; details: NF54, 72 h
# HeLa = assay: Antiproliferative activity against human Hela cells assessed as cell growth inhibition measured after 48 hrs by MTT assay; format: functional, cell-based
# [2] = Antiproliferative activity against human 1205Lu cells assessed as reduction in cell growth; format: functional, cell-based
# [3] = Cytotoxicity against human HFF cells assessed as cell growth inhibition measured after 48 hrs by MTT assay; format: toxicity, cell-based
# HCT-116 = assay: Antiproliferative activity against human HCT-116 cells assessed as growth after 48 hrs by MTT assay; format: functional, cell-based; details: HCT-116, 48 h
# C2G cell line = assay: Cytotoxicity against mouse C2G cells assessed as inhibition of cell growth measured after 72 hrs by MTT assay; format: functional, cell-based
# TRAMP-C2H = assay: Cytotoxicity against mouse TRAMP-C2H cells assessed as inhibition of cell growth measured after 72 hs by MTT assay; format: functional, cell-based
# TRAMP-C1A = assay: Cytotoxicity against mouse TRAMP-C1A cells assessed as inhibition of cell growth measured after 72 hrs by MTT assay; format: functional, cell-based
# C2D cell line = assay: Cytotoxicity against mouse C2D cell line assessed as inhibition of cell growth measured after 72 hrs by MTT assay; format: functional, cell-based
# Plasmodium falciparum [4] = assay: Antimalarial activity against Plasmodium falciparum 3D7 assessed as inhibition of malarial growth; format: functional, organism-based
# TK-10 = assay: Growth inhibition of human TK-10 cells assessed as cell growth inhibition measured after 48 hrs by MTT assay; format: functional
# UACC-62 = assay: Growth inhibition of human UACC-62 cells assessed as cell growth inhibition measured after 48 hrs by MTT assay; format: functional
# MCF7 [5] = assay: Growth inhibition of human MCF7 cells assessed as cell growth inhibition incubated for 48 hrs by MTT assay; format: functional
# BT-549 = assay: Antiproliferative activity against human BT-549 cells assessed as reduction in cell viability incubated for 48 hrs by MTT assay; format: functional, cell-based; details: BT-549, 48 h
# Ehrlich = assay: Cytotoxicity against mouse Ehrlich cells assessed as growth inhibition at 100 ug/ml; format: functional, cell-based
# SK-MEL-2 = assay: Antiproliferative activity against human SK-MEL-2 cells assessed as reduction in cell viability incubated for 48 hrs by MTT assay; format: functional, cell-based; details: SK-MEL-2, 48 h
# XF498 = assay: Antiproliferative activity against human XF498 cells assessed as reduction in cell viability incubated for 48 hrs by MTT assay; format: functional, cell-based; details: XF498, 48 h
# SK-MEL = assay: Antiproliferative activity against human SK-MEL cells assessed as reduction in cell viability incubated for 48 hrs by MTT assay; format: functional, cell-based
# Jurkat = assay: Antiproliferative activity against human Jurkat cells assessed as reduction in cell viability incubated for 48 hrs by MTT assay; format: functional, cell-based
# Plasmodium falciparum [6] = assay: Antimalarial activity against Plasmodium falciparum K1 assessed as inhibition of malarial growth; format: functional, organism-based
# HL-60 = assay: Growth inhibition of human HL-60 cells assessed as cell growth inhibition measured after 48 hrs by MTT assay; format: functional
# Plasmodium falciparum [7] = assay: Antimalarial activity against Plasmodium falciparum HB3 assessed as inhibition of malarial growth; format: functional, organism-based
# Plasmodium falciparum [8] = assay: Antimalarial activity against Plasmodium falciparum NF54 assessed as reduction in cell growth; format: functional, organism-based
# [9] = Cytotoxicity against rat MTLn3 cells assessed as cell growth inhibition; format: toxicity, cell-based
# Plasmodium falciparum [10] = assay: microbe, parasite or virus in culture; details: Dd2
# Description: Antiplasmodial activity against Plasmodium falciparum Dd2 assessed as inhibition of parasitic growth
# BeWo = assay: Antiproliferative activity against human BeWo cells assessed as reduction in cell viability after 72 hrs by MTT assay; format: functional, cell-based
# [11] = Antiproliferative activity against human YD-10B cells assessed as cell growth inhibition measured after 72 hrs by MTT assay; format: functional, cell-based
# P388 = assay: Antiproliferative activity against mouse P388 cells assessed as cell growth inhibition incubated for 72 hrs by MTT assay; format: functional, cell-based; details: P388, 72 h
# MCF7 [12] = assay: Antiproliferative activity against human MCF7 cells assessed as reduction in cell viability measured after 48 hrs by SRB assay; format: functional, cell-based; details: MCF7, 48 h
# HT-29 = assay: cells; details: Homo sapiens, HT-29, 72 h
# BT-474 = assay: Antiproliferative activity against human BT-474 cells assessed as reduction in cell growth measured after 72 hrs by MTT assay; format: functional, cell-based; details: BT-474, 72 h
# MDA-MB-231 = assay: Antiproliferative activity against human MDA-MB-231 cells assessed as reduction in cell viability measured after 48 hrs by MTT assay; format: functional, cell-based; details: MDA-MB-231, 48 h
compound,measurement,setting,value
C[C@H]1[C@H](CC(F)(F)c2ccc(C(F)(F)C[C@H]3O[C@H]4O[C@@]5(C)CC[C@H]6[C@H](C)CC[C@@H]([C@H]3C)[C@@]46OO5)cc2)O[C@H]2O[C@@]3(C)CC[C@H]4[C@H](C)CC[C@@H]1[C@@]24OO3,IC50,Plasmodium falciparum [1],15 nM
C[C@@H]1CC[C@H]2[C@@H](C)C(CC(CC3O[C@@H]4O[C@]5(C)CC[C@@H]6[C@@H](C)CC[C@H]([C@@H]3C)[C@]46OO5)CS(=O)(=O)c3ccc(COC(=O)N(C)C)cc3)O[C@H]3O[C@@]4(C)CC[C@@H]1[C@]32OO4 (stereo partly drawn),IC50,HeLa,270 nM
same,IC50,[2],130 nM
same,IC50 at 48 h,[3],57500 nM
same,IC50,HCT-116,70 nM
Nc1ccn([C@@H]2O[C@H](CO)[C@@H](O)C2(F)F)c(=O)n1 [GEMCITABINE],IC50,C2G cell line,3.7 nM
same,IC50,TRAMP-C2H,3.7 nM
same,IC50,TRAMP-C1A,3.7 nM
same,IC50,C2D cell line,3.7 nM
C[C@@H]1CC[C@H]2[C@@H](C)C(OCCCN3CC[N+](CCCOC4O[C@@H]5O[C@]6(C)CC[C@@H]7[C@@H](C)CC[C@H]([C@@H]4C)[C@]57OO6)(CCNc4ccnc5cc(Cl)ccc45)CC3)O[C@H]3O[C@@]4(C)CC[C@@H]1[C@]32OO4 (stereo partly drawn),IC50,Plasmodium falciparum [4],29.5 nM
same,GI50,TK-10,80 nM
same,GI50,UACC-62,40 nM
same,GI50,MCF7 [5],30 nM
C[C@@H]1CC[C@H]2[C@@H](C)C(OCC(O)COC3O[C@@H]4O[C@]5(C)CC[C@@H]6[C@@H](C)CC[C@H]([C@@H]3C)[C@]46OO5)O[C@H]3O[C@@]4(C)CC[C@@H]1[C@]32OO4 (stereo partly drawn),IC50,BT-549,480 nM
C[C@@H]1CC[C@H]2[C@@H](C)C(OCCC(CCCNc3ccnc4ccc(Cl)cc34)CCOC3O[C@@H]4O[C@]5(C)CC[C@@H]6[C@@H](C)CC[C@H]([C@@H]3C)[C@]46OO5)O[C@H]3O[C@@]4(C)CC[C@@H]1[C@]32OO4 (stereo partly drawn),IC50,Plasmodium falciparum [4],8.7 nM
same,GI50,TK-10,80 nM
same,GI50,UACC-62,50 nM
same,GI50,MCF7 [5],30 nM
C[C@@H]1CC[C@H]2[C@@H](C)C(CC(COP(=O)(Oc3ccccc3)Oc3ccccc3)CC3O[C@@H]4O[C@]5(C)CC[C@@H]6[C@@H](C)CC[C@H]([C@@H]3C)[C@]46OO5)O[C@H]3O[C@@]4(C)CC[C@@H]1[C@]32OO4 (stereo partly drawn),IC50,HeLa,190 nM
same,IC50,[2],60 nM
same,IC50 at 48 h,[3],55800 nM
same,IC50,HCT-116,40 nM
C[C@H]1[C@H](O[C@H]2O[C@H]3O[C@@]4(C)CC[C@H]5[C@H](C)CC[C@@H]([C@H]2C)[C@@]35OO4)O[C@H]2O[C@@]3(C)CC[C@H]4[C@H](C)CC[C@@H]1[C@@]24OO3,IC50,Ehrlich,3600 nM
C[C@@H]1CC[C@H]2[C@@H](C)C(OCC(=O)COC3O[C@@H]4O[C@]5(C)CC[C@@H]6[C@@H](C)CC[C@H]([C@@H]3C)[C@]46OO5)O[C@H]3O[C@@]4(C)CC[C@@H]1[C@]32OO4 (stereo partly drawn),IC50,SK-MEL-2,560 nM
C[C@@H]1CC[C@H]2[C@@H](C)C(CCC(=O)NCCCN3CCN(CCCNC(=O)CCC4O[C@H]5O[C@]6(C)CC[C@H]7[C@H](C)CC[C@@H]([C@H]4C)[C@@]57OO6)CC3)O[C@H]3O[C@]4(C)CC[C@@H]1[C@]32OO4 (stereo partly drawn),IC50,XF498,460 nM
same,IC50,SK-MEL,450 nM
COP(=O)(OCCCC1O[C@H]2O[C@@]3(C)CC[C@H]4[C@H](C)CC[C@@H]([C@H]1C)[C@@]24OO3)OCCC1O[C@H]2O[C@@]3(C)CC[C@H]4[C@H](C)CC[C@@H]([C@H]1C)[C@@]24OO3 (stereo partly drawn),IC50,Jurkat,7700 nM
same,IC50,Plasmodium falciparum [6],0.2 nM
same,GI50,HL-60,143 nM
same,IC50,Plasmodium falciparum [7],0.09 nM
C[C@@H]1CC[C@H]2[C@@H](C)C(CC(CC3O[C@@H]4O[C@]5(C)CC[C@@H]6[C@@H](C)CC[C@H]([C@@H]3C)[C@]46OO5)C(=O)O)O[C@H]3O[C@@]4(C)CC[C@@H]1[C@]32OO4 (stereo partly drawn),IC50,Plasmodium falciparum [8],2.4 nM
same,IC50,C2G cell line,134 nM
same,IC50,TRAMP-C1A,159 nM
same,IC50,C2D cell line,231 nM
C[C@@H]1CC[C@H]2[C@@H](C)C(CC(CC3O[C@@H]4O[C@]5(C)CC[C@@H]6[C@@H](C)CC[C@H]([C@@H]3C)[C@]46OO5)CS(=O)(=O)c3ccc(CO)cc3)O[C@H]3O[C@@]4(C)CC[C@@H]1[C@]32OO4 (stereo partly drawn),IC50,HeLa,560 nM
same,IC50,[2],100 nM
same,IC50 at 48 h,[3],4900 nM
same,IC50,HCT-116,70 nM
C[C@@H]1CC[C@H]2[C@@H](C)C(CC(CO)CC3O[C@H]4O[C@@]5(C)CC[C@H]6[C@H](C)CC[C@@H]([C@H]3C)[C@@]46OO5)O[C@H]3O[C@@]4(C)CC[C@@H]1[C@]32OO4 (stereo partly drawn),IC50,HeLa,1060 nM
same,IC50,[2],4900 nM
same,IC50,Plasmodium falciparum [8],0.87 nM
same,IC50,C2G cell line,15.4 nM
same,IC50,TRAMP-C2H,9.2 nM
same,IC50 at 48 h,[3],48100 nM
same,IC50,HCT-116,100 nM
same,IC50,[9],43 nM
same,IC50,C2D cell line,18.5 nM
C[C@@H]1CC[C@H]2[C@@H](C)C(O)O[C@H]3O[C@]4(C)CC[C@@H]1[C@]32O4 (stereo partly drawn),IC50,Plasmodium falciparum [10],2730 nM
C[C@H]1[C@H](OC(=O)CCC(=O)O)O[C@@H]2O[C@@]3(C)CC[C@H]4[C@H](C)CC[C@@H]1[C@@]24OO3 [ARTESUNATE],IC50,HeLa,7100 nM
same,IC50,[2],7100 nM
same,CC50 at 48 h,"[3]; time 48 hrs, read-out: TC50",717000 nM
same,IC50,HCT-116,7100 nM
C[C@@H]1CC[C@H]2[C@@H](C)C(CCSCCC3O[C@@H]4O[C@]5(C)CC[C@@H]6[C@@H](C)CC[C@H]([C@@H]3C)[C@]46OO5)O[C@H]3O[C@@]4(C)CC[C@@H]1[C@]32OO4 (stereo partly drawn),IC50,BeWo,22800 nM
same,IC50,[11],9300 nM
same,IC50,P388,640 nM
same,IC50,MCF7 [12],30 nM
same,IC50,HT-29,390 nM
C[C@H]1[C@@H](O[C@H]2O[C@H]3O[C@@]4(C)CC[C@H]5[C@H](C)CC[C@@H]([C@H]2C)[C@@]35OO4)O[C@H]2O[C@@]3(C)CC[C@H]4[C@H](C)CC[C@@H]1[C@@]24OO3,IC50,Ehrlich,31200 nM
C[C@@H]1CC[C@H]2[C@@H](C)C(CC(CC3O[C@@H]4O[C@]5(C)CC[C@@H]6[C@@H](C)CC[C@H]([C@@H]3C)[C@]46OO5)C(=O)N/N=C/c3ccccc3O)O[C@H]3O[C@@]4(C)CC[C@@H]1[C@]32OO4 (stereo partly drawn),IC50,[9],52 nM
C[C@@H]1CC[C@H]2[C@@H](C)C(CCN3CCC(C4CCN(CCC5O[C@H]6O[C@@]7(C)CC[C@H]8[C@H](C)CC[C@@H]([C@H]5C)[C@@]68OO7)CC4)CC3)O[C@H]3O[C@@]4(C)CC[C@@H]1[C@]32OO4 (stereo partly drawn),GI50,HL-60,400 nM
C[C@@H]1CC[C@H]2[C@@H](C)C(CCCOP(=O)(OCCC3O[C@H]4O[C@@]5(C)CC[C@H]6[C@H](C)CC[C@@H]([C@H]3C)[C@@]46OO5)Oc3ccccc3)O[C@H]3O[C@@]4(C)CC[C@@H]1[C@]32OO4 (stereo partly drawn),IC50,Jurkat,13200 nM
same,IC50,Plasmodium falciparum [6],0.5 nM
same,GI50,HL-60,241 nM
same,IC50,Plasmodium falciparum [7],0.18 nM
C[C@@H]1CC[C@H]2[C@@H](C)C(CC(COC(=O)CCC(=O)O)CC3O[C@H]4O[C@@]5(C)CC[C@H]6[C@H](C)CC[C@@H]([C@H]3C)[C@@]46OO5)O[C@H]3O[C@@]4(C)CC[C@@H]1[C@]32OO4 (stereo partly drawn),IC50,Plasmodium falciparum [8],2 nM
same,IC50,BT-474,390 nM
same,IC50,MDA-MB-231,32000 nM
C[C@@H]1CC[C@H]2[C@@H](C)C(CC(COC(=O)c3cc[n+]([O-])cc3)CC3O[C@H]4O[C@@]5(C)CC[C@H]6[C@H](C)CC[C@@H]([C@H]3C)[C@@]46OO5)O[C@H]3O[C@@]4(C)CC[C@@H]1[C@]32OO4 (stereo partly drawn),IC50,Plasmodium falciparum [8],0.53 nM
same,IC50,C2G cell line,47.4 nM
same,IC50,TRAMP-C2H,36.1 nM
same,IC50,TRAMP-C1A,84.6 nM
same,IC50,C2D cell line,62.1 nM
C[C@H]1[C@@H](CC(F)(F)c2ccc(C(F)(F)C[C@H]3O[C@H]4O[C@@]5(C)CC[C@H]6[C@H](C)CC[C@@H]([C@H]3C)[C@@]46OO5)cc2)O[C@H]2O[C@@]3(C)CC[C@H]4[C@H](C)CC[C@@H]1[C@@]24OO3,IC50,Plasmodium falciparum [1],28 nM
